PMC8689225, “Cardiac ryanodine receptor N-terminal region biosensors identify novel inhibitors via FRET-based high-throughput screening” (The Journal of Biological Chemistry, 2021)
Like-named read-outs stand apart in the source and are kept apart here. One block for each compound: values may come before it.

How the values were obtained:
RyR1 = molecular target: T1, RyR1 (Sus scrofa, UniProt P16960); assay: [3H]ryanodine binding to skeletal SR (HSR) vesicles; assay type: biochemical, pig; conditions: for EC50: Table S4, read-out: EC50, [3H]ryanodine binding, skeletal HSR; for maximum inhibitory effect on [3H]ryanodine binding / effect on [3H]ryanodine binding to RyR1: skeletal SR; for maximum inhibitory effect on [3H]ryanodine binding: 30 nM Ca2+; for effect on [3H]ryanodine binding to RyR1: 30 μM Ca2+
T1 construct: from tissue; host or cells: porcine longissimus dorsi muscle, heavy SR vesicles
Method: (§1) Crude sarcoplasmic reticulum membrane vesicles were isolated from porcine longissimus dorsi muscle and porcine cardiac left ventricle tissue by differential centrifugation of homogenized tissue, as established previously ([65]). Skeletal heavy SR (HSR) vesicles, which are enriched with RyR1, were isolated by fractionation of crude skeletal SR vesicles using a discontinuous sucrose gradient, in accordance with our published work ([65]). All vesicles were flash-frozen and stored at −80 °C.
(§2) In 96-well plates, skeletal SR membranes (HSR, 1 mg/ml) and cardiac SR membranes (CSR, 3 mg/ml) were preincubated with 1% DMSO or hit compound for 30 min at 22 °C in a solution containing 150 mM KCl, 5 mM GSH, 1 μg/ml Aprotinin/Leupeptin, 1 mM EGTA, and 65 μM or 1.02 mM CaCl2 (as determined by MaxChelator to yield 30 nM or 30 μM of free Ca^2+, respectively), 0.1 mg/ml of BSA, and 20 mM K-PIPES (pH 7.0). Nonspecific [^3H]ryanodine binding to SR was assessed by addition of 40 μM nonradioactively labeled ryanodine. Maximal [^3H]ryanodine binding was assessed by addition of 5 mM adenylyl-imidodiphosphate (AMP-PNP), and in the case of CSR, 20 mM caffeine was added. These control samples were each loaded over four wells per plate. Binding of [^3H]ryanodine (7.5 and 10 nM for CSR and HSR, respectively) was determined following a 3 h incubation at 37 °C and filtration through grade GF/B glass microfiber filters (Brandel Inc) using a Brandel Harvester. In 4 ml of Ecolite scintillation cocktail (MP biomedicals), [^3H]ryanodine retained on the filter was counted using a Beckman LS6000 scintillation counter.

RyR2 = molecular target: T2, RyR2 (Sus scrofa, UniProt A0A5G2R1W3); assay: [3H]ryanodine binding to cardiac SR (CSR) vesicles; assay type: biochemical, pig; conditions: for EC50: Table S4, read-out: EC50, [3H]ryanodine binding, cardiac SR; for effect on [3H]ryanodine binding to RyR2: cardiac SR
T2 construct: from tissue; host or cells: porcine cardiac left ventricle, crude SR vesicles
T2 sequence (A0A5G2R1W3 20-4900): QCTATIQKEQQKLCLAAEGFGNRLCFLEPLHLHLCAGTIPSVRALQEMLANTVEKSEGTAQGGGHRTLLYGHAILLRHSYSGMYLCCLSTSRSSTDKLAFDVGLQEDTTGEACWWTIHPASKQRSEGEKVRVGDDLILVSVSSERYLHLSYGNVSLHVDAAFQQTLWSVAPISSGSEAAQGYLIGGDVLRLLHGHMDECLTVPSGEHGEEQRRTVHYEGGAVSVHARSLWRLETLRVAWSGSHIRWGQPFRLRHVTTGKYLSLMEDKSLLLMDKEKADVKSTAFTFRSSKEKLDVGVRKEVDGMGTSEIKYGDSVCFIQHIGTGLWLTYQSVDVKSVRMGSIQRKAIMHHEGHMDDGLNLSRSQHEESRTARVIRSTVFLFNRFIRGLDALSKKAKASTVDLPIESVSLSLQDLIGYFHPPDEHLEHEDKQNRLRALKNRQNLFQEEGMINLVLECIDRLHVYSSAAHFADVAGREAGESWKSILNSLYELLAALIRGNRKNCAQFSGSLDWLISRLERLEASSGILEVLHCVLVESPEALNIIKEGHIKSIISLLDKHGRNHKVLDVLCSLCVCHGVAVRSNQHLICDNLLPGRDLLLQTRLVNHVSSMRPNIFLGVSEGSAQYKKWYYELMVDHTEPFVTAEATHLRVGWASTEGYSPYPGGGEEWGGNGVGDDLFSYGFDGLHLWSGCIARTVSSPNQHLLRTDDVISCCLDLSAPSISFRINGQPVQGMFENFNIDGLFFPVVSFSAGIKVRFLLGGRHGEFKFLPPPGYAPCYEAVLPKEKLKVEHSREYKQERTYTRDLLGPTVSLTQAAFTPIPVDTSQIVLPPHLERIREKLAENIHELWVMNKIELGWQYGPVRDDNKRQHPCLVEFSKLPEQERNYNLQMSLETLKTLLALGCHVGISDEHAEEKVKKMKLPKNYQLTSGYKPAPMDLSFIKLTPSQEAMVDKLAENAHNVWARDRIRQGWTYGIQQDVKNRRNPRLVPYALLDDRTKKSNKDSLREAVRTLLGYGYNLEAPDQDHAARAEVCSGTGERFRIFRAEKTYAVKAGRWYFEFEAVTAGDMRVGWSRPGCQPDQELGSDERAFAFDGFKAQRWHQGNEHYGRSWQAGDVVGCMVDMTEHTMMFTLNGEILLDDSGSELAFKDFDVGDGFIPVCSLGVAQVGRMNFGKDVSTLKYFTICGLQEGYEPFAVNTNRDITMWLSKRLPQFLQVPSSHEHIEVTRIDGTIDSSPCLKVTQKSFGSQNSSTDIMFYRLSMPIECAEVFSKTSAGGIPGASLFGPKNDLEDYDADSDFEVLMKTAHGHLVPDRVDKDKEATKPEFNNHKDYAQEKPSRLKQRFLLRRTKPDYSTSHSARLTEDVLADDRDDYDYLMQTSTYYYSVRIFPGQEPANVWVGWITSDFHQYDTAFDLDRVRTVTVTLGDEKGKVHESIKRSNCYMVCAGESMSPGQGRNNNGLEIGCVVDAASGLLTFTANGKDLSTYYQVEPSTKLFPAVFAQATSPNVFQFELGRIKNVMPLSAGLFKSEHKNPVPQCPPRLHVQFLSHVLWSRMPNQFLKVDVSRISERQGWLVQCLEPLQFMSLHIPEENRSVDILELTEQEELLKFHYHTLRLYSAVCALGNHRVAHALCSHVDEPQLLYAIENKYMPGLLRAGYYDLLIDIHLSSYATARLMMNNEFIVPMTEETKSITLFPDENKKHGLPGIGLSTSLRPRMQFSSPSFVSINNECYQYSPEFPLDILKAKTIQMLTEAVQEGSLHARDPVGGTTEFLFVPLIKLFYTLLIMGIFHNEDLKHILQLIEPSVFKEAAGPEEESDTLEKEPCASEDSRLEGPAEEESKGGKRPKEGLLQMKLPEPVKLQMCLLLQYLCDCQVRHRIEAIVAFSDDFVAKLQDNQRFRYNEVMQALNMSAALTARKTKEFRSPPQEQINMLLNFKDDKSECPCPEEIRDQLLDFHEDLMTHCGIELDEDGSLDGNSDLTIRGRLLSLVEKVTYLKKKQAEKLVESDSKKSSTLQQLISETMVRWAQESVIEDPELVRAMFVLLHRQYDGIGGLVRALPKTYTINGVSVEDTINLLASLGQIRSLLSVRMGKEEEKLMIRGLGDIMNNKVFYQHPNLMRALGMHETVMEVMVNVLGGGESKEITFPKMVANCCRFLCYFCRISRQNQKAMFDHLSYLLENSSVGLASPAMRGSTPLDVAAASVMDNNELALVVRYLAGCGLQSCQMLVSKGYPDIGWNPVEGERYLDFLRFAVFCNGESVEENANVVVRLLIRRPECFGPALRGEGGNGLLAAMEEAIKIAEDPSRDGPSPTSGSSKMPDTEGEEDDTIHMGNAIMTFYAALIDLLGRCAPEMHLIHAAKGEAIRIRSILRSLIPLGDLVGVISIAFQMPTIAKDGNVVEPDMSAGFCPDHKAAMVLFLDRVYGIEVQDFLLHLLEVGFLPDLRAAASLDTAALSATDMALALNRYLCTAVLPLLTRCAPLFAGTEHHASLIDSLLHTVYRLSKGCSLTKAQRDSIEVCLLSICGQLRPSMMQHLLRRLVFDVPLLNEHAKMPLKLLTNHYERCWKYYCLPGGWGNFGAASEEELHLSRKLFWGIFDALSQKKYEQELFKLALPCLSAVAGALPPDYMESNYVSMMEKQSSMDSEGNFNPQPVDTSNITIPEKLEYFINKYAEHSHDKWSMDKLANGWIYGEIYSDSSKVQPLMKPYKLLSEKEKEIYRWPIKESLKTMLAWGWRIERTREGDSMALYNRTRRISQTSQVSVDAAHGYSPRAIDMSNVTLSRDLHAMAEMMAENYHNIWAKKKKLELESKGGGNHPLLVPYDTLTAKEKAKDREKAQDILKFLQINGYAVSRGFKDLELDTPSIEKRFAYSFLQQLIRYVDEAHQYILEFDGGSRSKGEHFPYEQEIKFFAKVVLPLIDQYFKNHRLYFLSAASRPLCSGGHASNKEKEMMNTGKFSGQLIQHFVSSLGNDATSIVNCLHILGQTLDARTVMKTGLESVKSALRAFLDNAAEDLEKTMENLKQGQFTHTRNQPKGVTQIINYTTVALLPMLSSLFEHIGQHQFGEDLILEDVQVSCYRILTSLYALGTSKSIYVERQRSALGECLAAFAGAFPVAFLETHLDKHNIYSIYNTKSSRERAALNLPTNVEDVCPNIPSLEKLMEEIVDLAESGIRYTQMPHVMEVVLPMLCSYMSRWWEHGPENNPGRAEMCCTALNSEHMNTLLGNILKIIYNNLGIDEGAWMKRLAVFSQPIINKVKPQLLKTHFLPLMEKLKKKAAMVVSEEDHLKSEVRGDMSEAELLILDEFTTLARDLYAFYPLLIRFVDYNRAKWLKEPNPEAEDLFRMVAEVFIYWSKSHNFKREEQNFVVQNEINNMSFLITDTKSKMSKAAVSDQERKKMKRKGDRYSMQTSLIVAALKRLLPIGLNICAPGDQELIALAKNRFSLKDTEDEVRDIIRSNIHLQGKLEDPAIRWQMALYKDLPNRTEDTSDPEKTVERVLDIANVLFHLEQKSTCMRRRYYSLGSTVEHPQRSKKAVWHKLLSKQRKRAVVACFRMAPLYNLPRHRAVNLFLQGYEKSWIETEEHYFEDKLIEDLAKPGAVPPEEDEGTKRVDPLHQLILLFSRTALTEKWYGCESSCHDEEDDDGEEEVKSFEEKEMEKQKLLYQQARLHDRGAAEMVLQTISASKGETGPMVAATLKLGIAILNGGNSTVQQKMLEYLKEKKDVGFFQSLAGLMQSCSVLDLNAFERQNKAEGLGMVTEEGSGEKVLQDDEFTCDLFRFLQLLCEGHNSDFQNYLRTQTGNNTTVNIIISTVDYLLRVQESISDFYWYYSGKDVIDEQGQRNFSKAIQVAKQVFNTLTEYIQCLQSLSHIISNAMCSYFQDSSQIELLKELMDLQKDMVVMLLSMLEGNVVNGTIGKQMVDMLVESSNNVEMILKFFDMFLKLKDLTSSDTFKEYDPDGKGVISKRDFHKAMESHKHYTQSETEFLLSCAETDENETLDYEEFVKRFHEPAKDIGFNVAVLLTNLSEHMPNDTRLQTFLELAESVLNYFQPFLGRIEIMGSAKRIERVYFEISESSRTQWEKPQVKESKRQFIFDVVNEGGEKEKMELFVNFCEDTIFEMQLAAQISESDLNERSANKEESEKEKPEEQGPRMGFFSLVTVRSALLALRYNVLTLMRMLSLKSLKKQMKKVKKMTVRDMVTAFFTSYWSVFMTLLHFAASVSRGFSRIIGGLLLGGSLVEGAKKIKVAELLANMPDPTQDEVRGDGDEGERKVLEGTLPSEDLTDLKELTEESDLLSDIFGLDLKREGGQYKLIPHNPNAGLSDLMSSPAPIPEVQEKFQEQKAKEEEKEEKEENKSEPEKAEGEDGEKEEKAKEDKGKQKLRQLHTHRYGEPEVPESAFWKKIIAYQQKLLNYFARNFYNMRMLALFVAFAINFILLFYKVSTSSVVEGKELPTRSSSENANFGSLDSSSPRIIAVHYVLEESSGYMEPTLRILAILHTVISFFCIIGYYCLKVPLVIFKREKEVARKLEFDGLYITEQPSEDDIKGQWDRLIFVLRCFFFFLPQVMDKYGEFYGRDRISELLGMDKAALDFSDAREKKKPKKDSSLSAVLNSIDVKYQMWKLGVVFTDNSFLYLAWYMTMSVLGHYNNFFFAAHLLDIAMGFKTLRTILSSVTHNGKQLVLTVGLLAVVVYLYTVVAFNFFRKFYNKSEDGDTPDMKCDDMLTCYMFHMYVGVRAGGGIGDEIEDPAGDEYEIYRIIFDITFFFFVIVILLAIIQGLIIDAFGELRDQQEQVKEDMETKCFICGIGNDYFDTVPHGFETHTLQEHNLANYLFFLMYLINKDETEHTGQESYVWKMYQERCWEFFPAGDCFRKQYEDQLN
Method: as §1, §2

mouse RyR2 NTR = molecular target: T3, mouse RyR2 NTR (Mus musculus, UniProt E9Q401, K30C/K441C, form not given); assay: FLT-FRET dose-response with AC-NTR biosensor; assay type: binding; conditions: for saturation of FRET dose-response: decreased FLT; for saturation of FRET dose-response / ΔFLT: 0 to 100 μM; for ΔFLT: CPNQ/corbadrine decrease FLT, FA/tacrolimus increase FLT; for decrease of donor-only FLT as share of the FLT change in the donor-acceptor sample: interference control, designated interfering compounds
T3 sequence (E9Q401 1-547 K30C/K441C): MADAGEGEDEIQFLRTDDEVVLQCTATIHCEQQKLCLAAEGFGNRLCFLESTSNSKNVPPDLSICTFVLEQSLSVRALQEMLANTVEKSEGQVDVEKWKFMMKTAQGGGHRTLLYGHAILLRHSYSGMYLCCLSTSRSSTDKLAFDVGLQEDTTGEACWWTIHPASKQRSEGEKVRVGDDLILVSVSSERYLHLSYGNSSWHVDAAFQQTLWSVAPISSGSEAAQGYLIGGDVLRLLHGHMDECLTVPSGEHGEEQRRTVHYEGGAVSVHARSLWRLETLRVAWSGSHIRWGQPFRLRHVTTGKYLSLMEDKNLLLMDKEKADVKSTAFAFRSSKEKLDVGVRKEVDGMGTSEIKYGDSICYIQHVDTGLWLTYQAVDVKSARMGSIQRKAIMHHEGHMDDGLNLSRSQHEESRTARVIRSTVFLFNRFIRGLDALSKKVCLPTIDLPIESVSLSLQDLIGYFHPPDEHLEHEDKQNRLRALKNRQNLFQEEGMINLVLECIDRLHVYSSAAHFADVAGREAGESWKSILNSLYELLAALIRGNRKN
From the text: The NTR of mouse RyR2 (residues 1–547) was cloned and expressed as previously described ([27]). The DNA construct contains a 6×His tag, a maltose-binding protein (MBP) tag, and a tobacco etch virus (TEV) protease cleavage site. The seven native solvent-exposed cysteine residues were substituted with alanine residues, and two constructs were engineered with Cys substitutions at surface residues R383 and K441 (in the B and C domains, respectively; termed BC) and at K30 and K441 (in the A and C domains, respectively; termed AC) for labeling with spectroscopic probes such as appropriate donor–acceptor fluorophores for FRET (for the purpose of this report, these are considered the WT forms of AC and BC). A variant of the BC construct corresponding to the disease-associated mutant (R420Q) was also prepared. For this site-directed mutagenesis work, we used the QuikChange (Stratagene) and Phusion High-Fidelity PCR (Thermo Fisher Scientific) kits. The WT-NTR, R420Q-NTR, AC- and BC-NTR, AC- and BC-R420Q-NTR protein constructs were expressed in Escherichia coli Rosetta (DE3) pLacI cells at 18 °C and purified with a protocol adapted from previously published work ([26]). An amylose column was first applied after the cells were lysed by ultrasonication. The protein in the elution was then cleaved using TEV protease. The cleaved crude protein went through the second amylose column to separate from the MBP and then followed by a Superdex S-200 size exclusion column in a buffer consisting of 250 mM KCl, 10 mM HEPES, and 14 mM β-mercaptoethanol (pH 7.4). The NTR protein (3 μM) was then incubated in 10 mM HEPES, 250 mM KCl (pH 7.4, 2 h, 21 °C) with the fluorescent probes Alexa Fluor 488 maleimide (AF488, donor; 40 μM) and Alexa Fluor 568 maleimide (AF568, acceptor; 60 μM). The maleimide of the dye reacts with the thiols the Cys residues engineered into NTR, forming a covalently labeled protein. The Alexa dyes were added last to the reaction mixture, from 10 mM DMSO stock solutions. This reaction is not selective to one site (K30C or K441C), and we anticipate that there is a mixed population with K30C or K441C labeled with either AF488 (donor) or AF568 (acceptor). We focused on maximizing the fraction containing donor–acceptor pairs, thus maximizing FRET efficiency and the precision for detecting a change in structure as an indication that a compound interacts with the NTR biosensor. The labeling efficiency was determined by comparing the molar concentration of the bound dye, determined from UV-Vis absorbance, to the protein concentration, determined from gel densitometry. Essentially complete labeling was confirmed from electrospray ionization mass spectrometry. CD spectra of the WT-NTR and mutant R420Q-NTR constructs before and after labeling were recorded using a JASCO J-815 CD spectrometer (JASCO), confirming similar folding (Fig. S1).
The 1536-well assay plates were prepared as described in our previous reports ([21]). The LOPAC (Sigma-Aldrich) collection received in 96-well plates was reformatted into 384-well polypropylene intermediate plates (Greiner Bio-One) using a multichannel liquid handler, BioMek FX (Beckman Coulter), then transferred to 384-well Echo Qualified source plates (Labcyte Inc). Assay plates were prepared as previously described ([20]). On screening days, these plates were thawed out and were loaded with labeled NTR (5 μl, 20 nM final concentration) using a Multidrop Combi automated sample dispenser.
HTS measurements were conducted in a prototype top-read FLT plate reader (FLT-PR, Fluorescence Innovations, Inc), which reads each 1536-well plate in ∼3 min ([63], [64]). AF488 donor fluorescence was excited with a 473 nm microchip laser from Concepts Research Corporation, and the emission signal was split into two channels by a dichroic mirror and acquired with 517 ± 10 nm (channel 1) and 535 ± 7 nm band-pass filters (channel 2) (Semrock). […]

RyR = system: RyR; set-up: method as in PMID 27760856, PMID 32019969; conditions: cited from earlier work
[1] = AC-NTR biosensor, Hill fit, Table S4, read-out: EC50, FRET dose-response

SMILES: CN(C)c1ccccc1CN1CCCN(Cc2ccccc2N(C)C)C1c1ccncc1 [GANT61, 2-[[3-[[2-(dimethylamino)phenyl]methyl]-2-pyridin-4-yl-1,3-diazinan-1-yl]methyl]-N,N-dimethylaniline]
EC50 (RyR1; [Ca2+] 30 nM): 4 nM | EC50 (RyR1; [Ca2+], 30 µM): 9400 nM | maximum inhibitory effect on [3H]ryanodine binding (RyR1): ~50% | effect on [3H]ryanodine binding to RyR1 (RyR1): gradual inhibition at concentrations >1 μM | EC50 (RyR2; [Ca2+] 30 nM): 4 nM | EC50 (RyR2; [Ca2+], 30 µM): 17300 nM | effect on [3H]ryanodine binding to RyR2 (RyR2; 30 μM Ca2+): inhibitor at concentration >1 μM | EC50 (mouse RyR2 NTR; [1]): 15800 nM | saturation of FRET dose-response (mouse RyR2 NTR): did not reach saturation within the tested concentration range

SMILES: C=CC[C@@H]1/C=C(\C)C[C@H](C)C[C@H](OC)[C@H]2O[C@@](O)(C(=O)C(=O)N3CCCC[C@H]3C(=O)O[C@H](/C(C)=C/[C@@H]3CC[C@@H](O)[C@H](OC)C3)[C@H](C)[C@@H](O)CC1=O)[C@H](C)C[C@@H]2OC [tacrolimus, (3S,4R,5S,8R,9E,12S,14S,15R,16S,18R,19R,26aS)-5,19-dihydroxy-3-{(1E)-1-[(1R,3R,4R)-4-hydroxy-3-methoxycyclohexyl]prop-1-en-2-yl}-14,16-dimethoxy-4,10,12,18-tetramethyl-8-(prop-2-en-1-yl)-5,6,8,11,12,13,14,15,16,17,18,19,24,25,26,26a-hexadecahydro-3H-15,19-epoxypyrido[2,1-c][1,4]oxazacyclotricosine-1,7,20,21(4H,23H)-tetrone]
effect on RyR (RyR): activatory | ΔFLT (mouse RyR2 NTR; AC-NTR biosensor): ≈ 0.1 ns

EC50 (mouse RyR2 NTR; hits that increased FLT, read-out: EC50 (FRET dose-response)): < 1000 nM
SMILES: Nc1ccc(-c2nc3ccc(-c4nc5ccc(N)cc5[nH]4)cc3[nH]2)cc1 [Ro 90-7501, 2'-(4-Aminophenyl)-1H,1'H-2,5'-bibenzimidazol-5-amine]
effect on RyR (RyR): inhibitory

SMILES: CC/C(=C(\c1ccccc1)c1ccc(OCCN(C)C)cc1)c1ccccc1 [tamoxifen]
decrease of donor-only FLT as share of the FLT change in the donor-acceptor sample (mouse RyR2 NTR): > 50%

SMILES: O=C(c1ccc(Cl)cc1)N1CCN(c2ccc([N+](=O)[O-])c3ncccc23)CC1 [CPNQ, 5-[4-(4-Chlorobenzoyl)-1-piperazinyl]-8-nitroquinoline]
EC50 (RyR1; [Ca2+] 30 nM): 20 nM | maximum inhibitory effect on [3H]ryanodine binding (RyR1): approximately 30% | effect on [3H]ryanodine binding to RyR1 (RyR1): only slightly affected | EC50 (RyR2; [Ca2+] 30 nM): 20 nM | effect on [3H]ryanodine binding to RyR2 (RyR2; 30 nM Ca2+): inhibitory trend | effect on [3H]ryanodine binding to RyR2 (RyR2; 30 μM Ca2+): did not significantly alter | ΔFLT (mouse RyR2 NTR; AC-NTR biosensor): ≈ 0.35 ns | EC50 (mouse RyR2 NTR; [1]): 1300 nM

SMILES: CO[C@H]1C[C@@H]2CC[C@@H](C)[C@@](O)(O2)C(=O)C(=O)N2CCCC[C@H]2C(=O)O[C@H]([C@H](C)C[C@@H]2CC[C@@H](OC(=O)C(C)(CO)CO)[C@H](OC)C2)CC(=O)[C@H](C)/C=C(\C)[C@@H](O)[C@@H](OC)C(=O)[C@H](C)C[C@H](C)/C=C/C=C/C=C/1C [temsirolimus, (1R,2R,4S)-4-{(2R)-2-[(3S,6R,7E,9R,10R,12R,14S,15E,17E,19E,21S,23S,26R,27R,34aS)-9,27-dihydroxy-10,21-dimethoxy-6,8,12,14,20,26-hexamethyl-1,5,11,28,29-pentaoxo-1,4,5,6,9,10,11,12,13,14,21,22,23,24,25,26,27,28,29,31,32,33,34,34a-tetracosahydro-3H-23,27-epoxypyrido[2,1-c][1,4]oxazacyclohentriacontin-3-yl]propyl}-2-methoxycyclohexyl 3-hydroxy-2-(hydroxymethyl)-2-methylpropanoate]
EC50 (mouse RyR2 NTR; read-out: EC50 (FRET dose-response), hits that increased FLT): < 1000 nM

SMILES: CSc1c(C)c(SC)n2ccncc12 [oltipraz M2, 7-Methyl-6,8-bis(methylthio)-pyrrolo[1,2-a]pyrazine]
EC50 (RyR1; [Ca2+] 30 nM): 5 nM | maximum inhibitory effect on [3H]ryanodine binding (RyR1): ~50% | effect on [3H]ryanodine binding to RyR1 (RyR1): only slightly affected | effect on [3H]ryanodine binding to RyR2 (RyR2; 30 nM Ca2+): almost no effect | effect on [3H]ryanodine binding to RyR2 (RyR2; 30 μM Ca2+): did not significantly alter | EC50 (mouse RyR2 NTR; [1]): 21700 nM | saturation of FRET dose-response (mouse RyR2 NTR): did not reach saturation within the tested concentration range

SMILES: COc1ccc(/C=C/c2nc(NCCCN(C)C)c3ccccc3n2)cc1 [CP-31398]
decrease of donor-only FLT as share of the FLT change in the donor-acceptor sample (mouse RyR2 NTR): > 50%
